From patent US20230085307A1, “PYRIDAZINONE COMPOUND AND HERBICIDE” (NISSAN CHEMICAL CORPORATION, priority 2019, published 2023)

Key:
late watergrass = assay: Test Example 1: herbicidal activity, application before weed generation under submerged conditions (Table 16, symbol A); format: in vivo, late watergrass (Echinochloa oryzicola); conditions: 320 g/ha applied herbicide
Procedure, shortened: (§1)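 Alluvial soil was flooded to 4 cm depth, weed seeds were sown mixed and 2.5-leaf rice seedlings were transplanted. On sowing day, the compound's emulsion, diluted in water to a set dose, was applied to the water surface. Plants grew at 25–30 °C and were scored 0–5 after three weeks.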

Chinese sprangletop = assay: Test Example 3: herbicidal effect by foliage application, Wagner pot (Table 18, symbol D); format: in vivo, chinese sprangletop (Leptochloa chinensis)
Procedure, shortened: (§2)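 Plants were sown in alluvial soil held under 0.1–0.5 cm standing water and grown 14 days in a greenhouse at 25–30 °C. An emulsifiable formulation, water-diluted to the set dose, was then sprayed onto the foliage, and effects were scored three weeks later using previously defined criteria.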

green foxtail = assay: Test Example 5: herbicidal effect by foliage application, plastic box (Table 20, symbol G); format: in vivo, green foxtail (Setaria viridis); conditions: foliage application, 320 g/ha, evaluated three weeks after application
Procedure, shortened: (§3)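 Sow seeds spot-wise in sterilized diluvial soil; cover with ~1.5 cm soil. Grow 14 days in greenhouse, 25° C. to 30° C. Spray foliage with emulsion diluted to predetermined amount. Rate effect after 3 weeks.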

barnyard grass [1] = assay: Test Example 5: herbicidal effect by foliage application, plastic box (Table 20, symbol H); format: in vivo, barnyard grass (Echinochloa crus-galli); conditions: foliage application, 320 g/ha, evaluated three weeks after application
Procedure, shortened: as §3

Italian ryegrass = assay: Test Example 5: herbicidal effect by foliage application, plastic box (Table 20, symbol K); format: in vivo, Italian ryegrass (Lolium multiflorum); conditions: foliage application, 320 g/ha, evaluated three weeks after application
Procedure, shortened: as §3

lambsquarters = assay: Test Example 5: herbicidal effect by foliage application, plastic box (Table 20, symbol O); format: in vivo, lambsquarters (Chenopodium album); conditions: foliage application, 320 g/ha, evaluated three weeks after application
Procedure, shortened: as §3

blackgrass = assay: Test Example 5: herbicidal effect by foliage application, plastic box (Table 20, symbol J); format: in vivo, blackgrass (Alopecurus myosuroides); conditions: foliage application, 320 g/ha, evaluated three weeks after application
Procedure, shortened: as §3

oval-leafed pondweed = assay: Test Example 1: herbicidal activity, application before weed generation under submerged conditions (Table 16, symbol C); format: in vivo, oval-leafed pondweed (Monochoria vaginalis); conditions: 320 g/ha applied herbicide
Procedure, shortened: as §1

persian speedwell = assay: Test Example 5: herbicidal effect by foliage application, plastic box (Table 20, symbol R); format: in vivo, Persian speedwell (Veronica persica); conditions: foliage application, 320 g/ha, evaluated three weeks after application
Procedure, shortened: as §3

rice flat sedge = assay: Test Example 3: herbicidal effect by foliage application, Wagner pot (Table 18, symbol E); format: in vivo, rice flat sedge (Cyperus iria)
Procedure, shortened: as §2

redroot pigweed = assay: Test Example 5: herbicidal effect by foliage application, plastic box (Table 20, symbol N); format: in vivo, redroot pigweed (Amaranthus retroflexus); conditions: foliage application, 320 g/ha, evaluated three weeks after application
Procedure, shortened: as §3

velvetleaf = assay: Test Example 5: herbicidal effect by foliage application, plastic box (Table 20, symbol M); format: in vivo, velvetleaf (Abutilon theophrasti); conditions: foliage application, 320 g/ha, evaluated three weeks after application
Procedure, shortened: as §3

barnyard grass [2] = assay: Test Example 3: herbicidal effect by foliage application, Wagner pot (Table 18, symbol H); format: in vivo, barnyard grass (Echinochloa crus-galli)
Procedure, shortened: as §2

southern crabgrass = assay: Test Example 5: herbicidal effect by foliage application, plastic box (Table 20, symbol F); format: in vivo, southern crabgrass (Digitaria ciliaris); conditions: foliage application, 320 g/ha, evaluated three weeks after application
Procedure, shortened: as §3

wild oat = assay: Test Example 5: herbicidal effect by foliage application, plastic box (Table 20, symbol I); format: in vivo, wild oat (Avena fatua); conditions: foliage application, 320 g/ha, evaluated three weeks after application
Procedure, shortened: as §3

Japanese bulrush = assay: Test Example 1: herbicidal activity, application before weed generation under submerged conditions (Table 16, symbol B); format: in vivo, Japanese bulrush (Schoenoplectus juncoides); conditions: 320 g/ha applied herbicide
Procedure, shortened: as §1

windgrass = assay: Test Example 5: herbicidal effect by foliage application, plastic box (Table 20, symbol L); format: in vivo, windgrass (Apera spica-venti); conditions: foliage application, 320 g/ha, evaluated three weeks after application
Procedure, shortened: as §3

chickweed = assay: Test Example 5: herbicidal effect by foliage application, plastic box (Table 20, symbol P); format: in vivo, common chickweed (Stellaria media); conditions: foliage application, 320 g/ha, evaluated three weeks after application
Procedure, shortened: as §3

[3] = amount of applied herbicide 320 g/ha

For CCCC(=O)Oc1c(C)nn(C)c(=O)c1-c1c(-c2ccc(Oc3ccccc3)cc2)sc2ccc(F)cc12 [2-073], the “Herbicidal effect on A: late watergrass (grade 0-5)” value (late watergrass) was 3 (Herbicidal rate of 40% or more and less than 70%), the “herbicidal effect on D (Chinese sprangletop), rating 0-5” value (Chinese sprangletop; 320 g/ha) was 3 (Herbicidal rate of 40% or more and less than 70%) and the “herbicidal effect on G: green foxtail” value (green foxtail) was 2 (Herbicidal rate of 20% or more and less than 40%). The “herbicidal effect on H: barnyard grass” value (barnyard grass [1]) was 1 (Herbicidal rate of 5% or more and less than 20%), the “herbicidal effect on K: Italian ryegrass” value (Italian ryegrass) was 0 (Herbicidal rate of 5% or less (almost no effect)) and the “herbicidal effect on O: lambsquarters” value (lambsquarters) was 3 (Herbicidal rate of 40% or more and less than 70%). For the same molecule, the “herbicidal effect on J: blackgrass” value (blackgrass) was 0 (Herbicidal rate of 5% or less (almost no effect)), the “Herbicidal effect on C: oval-leafed pondweed (grade 0-5)” value (oval-leafed pondweed) was 0 (Herbicidal rate of 5% or less (almost no effect)) and the “herbicidal effect on R: persian speedwell” value (persian speedwell) was 4 (Herbicidal rate of 70% or more and less than 90%). For the same molecule, the “herbicidal effect on E (rice flat sedge), rating 0-5” value (rice flat sedge; 320 g/ha) was 3 (Herbicidal rate of 40% or more and less than 70%), the “herbicidal effect on N: redroot pigweed” value (redroot pigweed) was 3 (Herbicidal rate of 40% or more and less than 70%) and the “herbicidal effect on M: velvetleaf” value (velvetleaf) was 3 (Herbicidal rate of 40% or more and less than 70%). For the same molecule, the “herbicidal effect on H (barnyard grass), rating 0-5” value (barnyard grass [2]; 320 g/ha) was 4 (Herbicidal rate of 70% or more and less than 90%), the “herbicidal effect on F: southern crabgrass” value (southern crabgrass) was 0 (Herbicidal rate of 5% or less (almost no effect)) and the “herbicidal effect on I: wild oat” value (wild oat) was 0 (Herbicidal rate of 5% or less (almost no effect)). The “Herbicidal effect on B: Japanese bulrush (grade 0-5)” value (Japanese bulrush) was 0 (Herbicidal rate of 5% or less (almost no effect)), the “herbicidal effect on L: windgrass” value (windgrass) was 0 (Herbicidal rate of 5% or less (almost no effect)) and the “herbicidal effect on P: chickweed” value (chickweed) was 5 (Herbicidal rate of 90% or more (almost completely withered)).
COc1ccc(Br)cc1-c1sc2ccc(Br)cc2c1-c1c(O)c(C)nn(C)c1=O [2-129] was tested, and the “Herbicidal effect on A: late watergrass (grade 0-5)” value (late watergrass) was 5 (Herbicidal rate of 90% or more (almost completely withered)), the “herbicidal effect on D: Chinese sprangletop” value (Chinese sprangletop; [3]) was 0 (Herbicidal rate of 5% or less (almost no effect)) and the “herbicidal effect on G: green foxtail” value (green foxtail) was 0 (Herbicidal rate of 5% or less (almost no effect)). The “herbicidal effect on H: barnyard grass” value (barnyard grass [1]) was 0 (Herbicidal rate of 5% or less (almost no effect)), the “herbicidal effect on K: Italian ryegrass” value (Italian ryegrass) was 0 (Herbicidal rate of 5% or less (almost no effect)) and the “herbicidal effect on O: lambsquarters” value (lambsquarters) was 2 (Herbicidal rate of 20% or more and less than 40%). For the same molecule, the “herbicidal effect on J: blackgrass” value (blackgrass) was 0 (Herbicidal rate of 5% or less (almost no effect)), the “Herbicidal effect on C: oval-leafed pondweed (grade 0-5)” value (oval-leafed pondweed) was 0 (Herbicidal rate of 5% or less (almost no effect)) and the “herbicidal effect on R: persian speedwell” value (persian speedwell) was 0 (Herbicidal rate of 5% or less (almost no effect)). The “herbicidal effect on E: rice flat sedge” value (rice flat sedge; [3]) was 0 (Herbicidal rate of 5% or less (almost no effect)), the “herbicidal effect on N: redroot pigweed” value (redroot pigweed) was 0 (Herbicidal rate of 5% or less (almost no effect)) and the “herbicidal effect on M: velvetleaf” value (velvetleaf) was 0 (Herbicidal rate of 5% or less (almost no effect)). For the same molecule, the “herbicidal effect on H: barnyard grass” value (barnyard grass [2]; [3]) was 3 (Herbicidal rate of 40% or more and less than 70%), the “herbicidal effect on F: southern crabgrass” value (southern crabgrass) was 0 (Herbicidal rate of 5% or less (almost no effect)) and the “herbicidal effect on I: wild oat” value (wild oat) was 0 (Herbicidal rate of 5% or less (almost no effect)). For the same molecule, the “Herbicidal effect on B: Japanese bulrush (grade 0-5)” value (Japanese bulrush) was 0 (Herbicidal rate of 5% or less (almost no effect)), the “herbicidal effect on L: windgrass” value (windgrass) was 0 (Herbicidal rate of 5% or less (almost no effect)) and the “herbicidal effect on P: chickweed” value (chickweed) was 0 (Herbicidal rate of 5% or less (almost no effect)).
